Reference: ChEMBL document CHEMBL4507289, “Data for DCP probe GSM1” (2021)

How the values were obtained:
[1] = biological target: Mitogen-activated protein kinase kinase kinase 15 (Homo sapiens) (UniProt Q6ZN16); details: Compound concentration 1000.0 nM
[2] = biological target: Calcium-dependent protein kinase 1 (Plasmodium falciparum) (UniProt P62344); details: Compound concentration 1000.0 nM
[3] = biological target: 5'-AMP-activated protein kinase catalytic subunit alpha-1 (Homo sapiens) (UniProt Q13131); details: Compound concentration 1000.0 nM
[4] = biological target: Serine/threonine-protein kinase Nek11 (Homo sapiens) (UniProt Q8NG66); details: Compound concentration 1000.0 nM
Serine/threonine-protein kinase Nek11 (Homo sapiens), sequence (Q8NG66 whole entry): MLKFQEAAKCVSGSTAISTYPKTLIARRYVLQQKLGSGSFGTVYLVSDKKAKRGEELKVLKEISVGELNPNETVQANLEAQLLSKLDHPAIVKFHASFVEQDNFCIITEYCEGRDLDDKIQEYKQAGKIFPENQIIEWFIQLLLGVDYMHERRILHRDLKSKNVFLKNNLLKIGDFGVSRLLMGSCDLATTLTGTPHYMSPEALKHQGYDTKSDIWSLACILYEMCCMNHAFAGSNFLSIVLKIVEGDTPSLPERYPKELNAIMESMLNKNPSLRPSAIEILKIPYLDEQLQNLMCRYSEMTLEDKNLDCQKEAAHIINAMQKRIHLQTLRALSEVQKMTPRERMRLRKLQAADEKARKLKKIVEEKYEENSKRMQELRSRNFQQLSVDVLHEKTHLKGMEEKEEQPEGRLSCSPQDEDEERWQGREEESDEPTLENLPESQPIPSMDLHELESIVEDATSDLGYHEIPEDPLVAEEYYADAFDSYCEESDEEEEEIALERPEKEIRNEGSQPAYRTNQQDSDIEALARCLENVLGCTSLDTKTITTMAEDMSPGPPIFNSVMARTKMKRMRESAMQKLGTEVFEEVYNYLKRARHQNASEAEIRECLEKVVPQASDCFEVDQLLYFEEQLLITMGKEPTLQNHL

[5] = system: Tyrosine-protein kinase ABL1 (Homo sapiens), P00519 [Q252H]; details: Compound concentration 1000.0 nM
[6] = biological target: Mitogen-activated protein kinase kinase kinase 7 (Homo sapiens) (UniProt O43318); details: Compound concentration 1000.0 nM
[7] = biological target: 5-hydroxytryptamine receptor 5A (Homo sapiens) (UniProt P47898); details: Compound concentration 10.0 uM
[8] = biological target: NUAK family SNF1-like kinase 2 (Homo sapiens) (UniProt Q9H093); details: Compound concentration 1000.0 nM
[9] = biological target: Dual specificity mitogen-activated protein kinase kinase 6 (Homo sapiens) (UniProt P52564); details: Compound concentration 1000.0 nM
[10] = biological target: Cyclin-dependent kinase 2 (Homo sapiens) (UniProt P24941); details: Compound concentration 1000.0 nM
[11] = biological target: Phosphatidylinositol 4-phosphate 5-kinase type-1 gamma (Homo sapiens) (UniProt O60331); details: Compound concentration 1000.0 nM
[12] = biological target: Dual specificity protein kinase CLK2 (Homo sapiens) (UniProt P49760); details: Compound concentration 1000.0 nM
[13] = biological target: Mitogen-activated protein kinase kinase kinase kinase 3 (Homo sapiens) (UniProt Q8IVH8); details: Compound concentration 1000.0 nM
Mitogen-activated protein kinase kinase kinase kinase 3 (Homo sapiens), sequence (Q8IVH8 whole entry): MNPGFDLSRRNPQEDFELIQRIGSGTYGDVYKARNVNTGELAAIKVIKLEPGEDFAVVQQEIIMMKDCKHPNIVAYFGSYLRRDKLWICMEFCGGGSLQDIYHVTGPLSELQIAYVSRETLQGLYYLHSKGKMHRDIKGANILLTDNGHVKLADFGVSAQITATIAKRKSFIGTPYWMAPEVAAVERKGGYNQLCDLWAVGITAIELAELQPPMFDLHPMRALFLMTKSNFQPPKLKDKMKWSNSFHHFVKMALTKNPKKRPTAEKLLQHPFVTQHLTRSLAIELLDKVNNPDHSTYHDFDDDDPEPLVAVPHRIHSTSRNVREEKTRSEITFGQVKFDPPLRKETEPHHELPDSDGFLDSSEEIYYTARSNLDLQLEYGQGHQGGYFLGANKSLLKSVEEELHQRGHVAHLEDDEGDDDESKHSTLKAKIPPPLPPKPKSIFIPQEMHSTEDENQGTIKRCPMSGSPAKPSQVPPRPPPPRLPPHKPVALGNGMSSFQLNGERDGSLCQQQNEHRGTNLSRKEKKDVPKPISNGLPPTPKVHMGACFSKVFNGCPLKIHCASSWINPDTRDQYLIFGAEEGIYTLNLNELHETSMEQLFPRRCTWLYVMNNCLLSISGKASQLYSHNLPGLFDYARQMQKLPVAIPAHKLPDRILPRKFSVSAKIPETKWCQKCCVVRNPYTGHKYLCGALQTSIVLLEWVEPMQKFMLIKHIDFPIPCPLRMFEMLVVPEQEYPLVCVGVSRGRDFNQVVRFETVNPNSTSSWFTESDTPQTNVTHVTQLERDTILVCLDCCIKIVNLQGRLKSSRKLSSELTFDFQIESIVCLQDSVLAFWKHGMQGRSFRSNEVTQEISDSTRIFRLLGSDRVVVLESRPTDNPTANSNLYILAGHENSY

[14] = biological target: Death-associated protein kinase 1 (Homo sapiens) (UniProt P53355); details: Compound concentration 1000.0 nM
[15] = system: Phosphatidylinositol 4,5-bisphosphate 3-kinase catalytic subunit alpha isoform (Homo sapiens), P42336 [Q546K]; details: Compound concentration 1000.0 nM
[16] = biological target: Aurora kinase C (Homo sapiens) (UniProt Q9UQB9); details: Compound concentration 1000.0 nM
[17] = biological target: Vascular endothelial growth factor receptor 1 (Homo sapiens) (UniProt P17948); details: Compound concentration 1000.0 nM
[18] = biological target: Mitogen-activated protein kinase 12 (Homo sapiens) (UniProt P53778); details: Compound concentration 1000.0 nM
Mitogen-activated protein kinase 12 (Homo sapiens), sequence (P53778 whole entry): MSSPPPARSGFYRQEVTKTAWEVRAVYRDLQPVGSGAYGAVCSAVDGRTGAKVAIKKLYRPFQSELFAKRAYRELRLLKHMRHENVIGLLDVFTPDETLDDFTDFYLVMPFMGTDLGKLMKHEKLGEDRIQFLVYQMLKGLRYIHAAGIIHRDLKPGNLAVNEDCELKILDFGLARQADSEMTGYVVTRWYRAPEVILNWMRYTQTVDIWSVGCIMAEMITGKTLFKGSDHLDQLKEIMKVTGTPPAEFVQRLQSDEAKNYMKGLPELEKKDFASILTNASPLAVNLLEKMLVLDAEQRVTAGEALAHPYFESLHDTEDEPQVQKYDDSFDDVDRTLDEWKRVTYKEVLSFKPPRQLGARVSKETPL

[19] = biological target: Serine/threonine-protein kinase mTOR (Homo sapiens) (UniProt P42345); details: Compound concentration 1000.0 nM
[20] = biological target: Membrane-associated tyrosine- and threonine-specific cdc2-inhibitory kinase (Homo sapiens) (UniProt Q99640); details: Compound concentration 1000.0 nM
[21] = biological target: Aurora kinase A (Homo sapiens) (UniProt O14965); details: Compound concentration 1000.0 nM
[22] = system: Tyrosine-protein kinase ABL1 (Homo sapiens), P00519 [E255K]; details: Compound concentration 1000.0 nM
[23] = biological target: Serine/threonine-protein kinase WNK3 (Homo sapiens) (UniProt Q9BYP7); details: Compound concentration 1000.0 nM
[24] = biological target: Beta-1 adrenergic receptor (Homo sapiens) (UniProt P08588); details: Compound concentration 10.0 uM
[25] = biological target: Leucine-rich repeat serine/threonine-protein kinase 2 (Homo sapiens) (UniProt Q5S007); details: Compound concentration 1000.0 nM
[26] = biological target: Serine/threonine-protein kinase TAO1 (Homo sapiens) (UniProt Q7L7X3); details: Compound concentration 1000.0 nM
[27] = biological target: Serine/threonine-protein kinase D1 (Homo sapiens) (UniProt Q15139); details: Compound concentration 1000.0 nM
Serine/threonine-protein kinase D1 (Homo sapiens), sequence (Q15139 whole entry): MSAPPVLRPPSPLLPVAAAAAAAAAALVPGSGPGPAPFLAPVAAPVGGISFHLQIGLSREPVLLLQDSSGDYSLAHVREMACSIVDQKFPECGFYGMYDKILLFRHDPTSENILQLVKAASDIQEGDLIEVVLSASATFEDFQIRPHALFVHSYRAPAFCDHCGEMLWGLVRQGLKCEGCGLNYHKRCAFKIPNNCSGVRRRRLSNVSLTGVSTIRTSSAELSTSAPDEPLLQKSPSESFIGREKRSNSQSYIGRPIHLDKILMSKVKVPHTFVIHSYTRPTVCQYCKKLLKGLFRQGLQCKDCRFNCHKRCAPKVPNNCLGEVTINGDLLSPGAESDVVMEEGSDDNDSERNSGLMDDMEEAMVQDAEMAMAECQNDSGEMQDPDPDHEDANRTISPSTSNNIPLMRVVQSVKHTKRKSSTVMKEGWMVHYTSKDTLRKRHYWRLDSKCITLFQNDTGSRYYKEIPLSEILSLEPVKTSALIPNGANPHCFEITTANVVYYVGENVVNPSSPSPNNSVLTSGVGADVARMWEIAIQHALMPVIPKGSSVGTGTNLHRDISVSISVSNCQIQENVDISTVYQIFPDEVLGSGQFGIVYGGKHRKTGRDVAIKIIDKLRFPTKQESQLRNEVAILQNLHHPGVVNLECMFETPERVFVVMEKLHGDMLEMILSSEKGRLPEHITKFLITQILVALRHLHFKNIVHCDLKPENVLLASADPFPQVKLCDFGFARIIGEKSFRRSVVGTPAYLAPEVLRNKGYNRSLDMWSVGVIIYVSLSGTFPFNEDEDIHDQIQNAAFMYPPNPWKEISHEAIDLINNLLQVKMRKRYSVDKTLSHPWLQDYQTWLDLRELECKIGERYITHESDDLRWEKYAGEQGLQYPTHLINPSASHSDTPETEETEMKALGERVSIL

[28] = biological target: Serine/threonine-protein kinase NIM1 (Homo sapiens) (UniProt Q8IY84); details: Compound concentration 1000.0 nM
[29] = biological target: Phosphorylase b kinase gamma catalytic chain, skeletal muscle/heart isoform (Homo sapiens) (UniProt Q16816); details: Compound concentration 1000.0 nM
[30] = biological target: Ankyrin repeat and protein kinase domain-containing protein 1 (Homo sapiens) (UniProt Q8NFD2); details: Compound concentration 1000.0 nM
[31] = biological target: 5-hydroxytryptamine receptor 3A (Homo sapiens) (UniProt P46098); details: Compound concentration 10.0 uM
5-hydroxytryptamine receptor 3A (Homo sapiens), sequence (P46098 whole entry): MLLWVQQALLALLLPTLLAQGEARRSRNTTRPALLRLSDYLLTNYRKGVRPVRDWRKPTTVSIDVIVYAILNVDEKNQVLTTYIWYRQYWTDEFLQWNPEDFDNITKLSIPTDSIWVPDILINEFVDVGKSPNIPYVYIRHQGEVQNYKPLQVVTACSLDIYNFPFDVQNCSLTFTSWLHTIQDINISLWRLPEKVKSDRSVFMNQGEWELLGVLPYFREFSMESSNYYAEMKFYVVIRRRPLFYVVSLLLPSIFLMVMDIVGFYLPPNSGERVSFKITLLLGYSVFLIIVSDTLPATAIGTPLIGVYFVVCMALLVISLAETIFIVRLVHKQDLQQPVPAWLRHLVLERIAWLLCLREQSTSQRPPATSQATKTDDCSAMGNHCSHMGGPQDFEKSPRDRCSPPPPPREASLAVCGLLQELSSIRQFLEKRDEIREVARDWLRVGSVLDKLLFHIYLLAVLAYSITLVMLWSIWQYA

[32] = system: Epidermal growth factor receptor (Homo sapiens), P00533 [L858R,T790M]; details: Compound concentration 1000.0 nM
[33] = biological target: Serine/threonine-protein kinase DCLK3 (Homo sapiens) (UniProt Q9C098); details: Compound concentration 1000.0 nM
[34] = biological target: Mitogen-activated protein kinase 11 (Homo sapiens) (UniProt Q15759); details: Compound concentration 1000.0 nM
[35] = biological target: Death-associated protein kinase 2 (Homo sapiens) (UniProt Q9UIK4); details: Compound concentration 1000.0 nM
Death-associated protein kinase 2 (Homo sapiens), sequence (Q9UIK4 whole entry, looked up): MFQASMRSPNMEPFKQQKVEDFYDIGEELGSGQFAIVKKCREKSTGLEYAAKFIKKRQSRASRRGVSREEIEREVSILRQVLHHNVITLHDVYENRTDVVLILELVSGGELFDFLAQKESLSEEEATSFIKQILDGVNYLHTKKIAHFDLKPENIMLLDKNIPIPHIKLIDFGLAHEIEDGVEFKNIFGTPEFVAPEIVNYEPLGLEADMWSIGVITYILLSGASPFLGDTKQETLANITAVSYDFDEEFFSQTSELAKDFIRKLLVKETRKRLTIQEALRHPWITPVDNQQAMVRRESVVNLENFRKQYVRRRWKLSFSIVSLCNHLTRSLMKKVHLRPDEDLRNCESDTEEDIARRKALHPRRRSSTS

[36] = system: Receptor-type tyrosine-protein kinase FLT3 (Homo sapiens), P36888 [K663Q]; details: Compound concentration 1000.0 nM
[37] = biological target: Serine/threonine-protein kinase Nek3 (Homo sapiens) (UniProt P51956); details: Compound concentration 1000.0 nM
[38] = biological target: Casein kinase I isoform epsilon (Homo sapiens) (UniProt P49674); details: Compound concentration 1000.0 nM
Casein kinase I isoform epsilon (Homo sapiens), sequence (P49674 whole entry, looked up, canonical isoform): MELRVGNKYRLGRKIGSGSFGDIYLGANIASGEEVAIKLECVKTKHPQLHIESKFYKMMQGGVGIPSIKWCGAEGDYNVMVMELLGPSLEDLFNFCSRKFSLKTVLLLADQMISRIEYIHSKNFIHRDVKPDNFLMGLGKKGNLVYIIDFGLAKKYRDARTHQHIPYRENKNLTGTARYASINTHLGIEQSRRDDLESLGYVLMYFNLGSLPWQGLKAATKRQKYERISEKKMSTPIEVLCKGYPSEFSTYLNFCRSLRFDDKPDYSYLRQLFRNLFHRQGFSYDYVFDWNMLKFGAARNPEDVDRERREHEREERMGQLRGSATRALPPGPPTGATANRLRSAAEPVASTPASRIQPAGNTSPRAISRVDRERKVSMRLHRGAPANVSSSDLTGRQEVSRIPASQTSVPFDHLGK

[39] = biological target: Serine/threonine-protein kinase 24 (Homo sapiens) (UniProt Q9Y6E0); details: Compound concentration 1000.0 nM
[40] = biological target: Tyrosine-protein kinase JAK1 (Homo sapiens) (UniProt P23458); details: Compound concentration 1000.0 nM
[41] = biological target: Serine/threonine-protein kinase PLK4 (Homo sapiens) (UniProt O00444); details: Compound concentration 1000.0 nM
Serine/threonine-protein kinase PLK4 (Homo sapiens), sequence (O00444 whole entry): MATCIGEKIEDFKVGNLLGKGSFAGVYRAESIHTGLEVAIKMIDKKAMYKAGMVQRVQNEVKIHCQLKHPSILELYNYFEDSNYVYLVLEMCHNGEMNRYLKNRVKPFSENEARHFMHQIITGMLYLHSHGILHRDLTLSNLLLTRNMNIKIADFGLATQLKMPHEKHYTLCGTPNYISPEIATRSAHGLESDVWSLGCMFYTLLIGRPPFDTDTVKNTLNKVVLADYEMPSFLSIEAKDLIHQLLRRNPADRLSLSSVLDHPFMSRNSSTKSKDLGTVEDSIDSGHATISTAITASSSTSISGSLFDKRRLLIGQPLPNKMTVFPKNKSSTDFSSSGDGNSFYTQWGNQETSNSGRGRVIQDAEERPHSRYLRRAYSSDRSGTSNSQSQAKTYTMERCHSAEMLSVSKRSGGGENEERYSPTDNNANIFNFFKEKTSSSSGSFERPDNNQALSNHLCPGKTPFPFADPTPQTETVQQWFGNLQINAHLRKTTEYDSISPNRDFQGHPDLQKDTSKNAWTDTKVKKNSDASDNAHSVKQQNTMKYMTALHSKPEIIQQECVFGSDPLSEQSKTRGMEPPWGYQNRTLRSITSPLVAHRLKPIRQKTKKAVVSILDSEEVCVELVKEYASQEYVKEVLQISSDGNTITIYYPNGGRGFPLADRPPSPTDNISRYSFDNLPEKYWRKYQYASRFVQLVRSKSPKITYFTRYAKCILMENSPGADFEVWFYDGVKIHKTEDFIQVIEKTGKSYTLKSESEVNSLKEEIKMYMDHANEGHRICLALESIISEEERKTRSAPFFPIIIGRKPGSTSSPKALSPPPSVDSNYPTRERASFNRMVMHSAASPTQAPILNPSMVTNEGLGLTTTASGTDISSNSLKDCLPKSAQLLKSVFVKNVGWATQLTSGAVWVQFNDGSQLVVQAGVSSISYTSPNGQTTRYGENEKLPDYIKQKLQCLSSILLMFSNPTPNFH

[42] = biological target: BMP-2-inducible protein kinase (Homo sapiens) (UniProt Q9NSY1); details: Compound concentration 1000.0 nM
[43] = biological target: Serine/threonine-protein kinase PLK1 (Homo sapiens) (UniProt P53350); details: Compound concentration 1000.0 nM
[44] = biological target: SRSF protein kinase 1 (Homo sapiens) (UniProt Q96SB4); details: Compound concentration 1000.0 nM
[45] = biological target: Serine/threonine-protein kinase BRSK1 (Homo sapiens) (UniProt Q8TDC3); details: Compound concentration 1000.0 nM

COc1cc(-c2cn([C@H]3CCc4c(F)cccc4N(CC(F)(F)F)C3=O)nn2)ccc1-n1cnc(C)c1
inactive: residual activity [1] 100% | residual activity [2] 100% | residual activity [3] 100% | residual activity [4] 100% | residual activity [5] 100% | residual activity [6] 100% | inhibition [7] 7.61% | residual activity [8] 100% | residual activity [9] 100% | residual activity [10] 100% | residual activity [11] 90% | residual activity [12] 100% | residual activity [13] 100% | residual activity [14] 99% | residual activity [15] 90% | residual activity [16] 100% | residual activity [17] 97% | residual activity [18] 79% | residual activity [19] 100% | residual activity [20] 100% | residual activity [21] 100% | residual activity [22] 100% | residual activity [23] 100% | inhibition [24] 2.45% | residual activity [25] 57% | residual activity [26] 100% | residual activity [27] 100% | residual activity [28] 78% | residual activity [29] 78% | residual activity [30] 100% | inhibition [31] -8% | residual activity [32] 82% | residual activity [33] 100% | residual activity [34] 90% | residual activity [35] 100% | residual activity [36] 92% | residual activity [37] 86% | residual activity [38] 80% | residual activity [39] 100% | residual activity [40] 100% | residual activity [41] 100% | residual activity [42] 100% | residual activity [43] 100% | residual activity [44] 100% | residual activity [45] 92%

COc1cc(-c2cn([C@H]3CCc4ccccc4N(CC(F)(F)F)C3=O)nn2)ccc1-n1ccc(C)n1
inactive: residual activity [1] 84% | residual activity [2] 99% | residual activity [3] 100% | residual activity [4] 99% | residual activity [5] 71% | residual activity [6] 86% | inhibition [7] 9.69% | residual activity [8] 88% | residual activity [9] 100% | residual activity [10] 100% | residual activity [11] 100% | residual activity [12] 100% | residual activity [13] 100% | residual activity [14] 79% | residual activity [15] 97% | residual activity [16] 100% | residual activity [17] 100% | residual activity [18] 100% | residual activity [19] 100% | residual activity [20] 100% | residual activity [21] 58% | residual activity [22] 96% | residual activity [23] 100% | inhibition [24] 3.7% | residual activity [25] 54% | residual activity [26] 92% | residual activity [27] 100% | residual activity [28] 80% | residual activity [29] 80% | residual activity [30] 78% | inhibition [31] -9.73% | residual activity [32] 65% | residual activity [33] 100% | residual activity [34] 82% | residual activity [35] 100% | residual activity [36] 100% | residual activity [37] 100% | residual activity [38] 100% | residual activity [39] 97% | residual activity [40] 87% | residual activity [41] 73% | residual activity [42] 100% | residual activity [43] 84% | residual activity [44] 100% | residual activity [45] 81%
